Results: publication PMC8238920, “Functional inhibition of lactate dehydrogenase suppresses pancreatic adenocarcinoma progression” (Clinical and Translational Medicine, 2021)

Biological target: T1, lactate dehydrogenase A (LDHA) (Homo sapiens, UniProt P00338)
T1 construct: his-tag LDHA human recombinant protein (Cat. No. 71081, BPS Bioscience)
Experiment: SPR (Biacore T200, LDHA immobilized on CM5 chip, berberine […])
Type: binding

Structure (SMILES): COc1ccc2cc3[n+](cc2c1OC)CCc1cc2c(cc1-3)OCO2 [BBR, berberine]
- Kd: 4.59 µM
